Measurements taken from patent US20220226484A1, “THERAPEUTIC PEPTIDES” (COHBAR, INC., priority 2019, published 2022).
Positions of bridges follow the written chain, without caps; N, C: chain ends. Non-standard residues stand in square brackets, D forms with d. Primed or numbered codes have the meaning given here. Chains are numbered I, II in the order given. No end group written: not given here. PEG12′ = not defined here; Nle = CCCC[C@H](N)C(=O)O

Columns and labels:
[1] = system: A172 Cells; experiment: Cell viability, PrestoBlue Assay; type: cell-based, human; details: peptide 10 μM, 18-20 hours, relative to 0.1% DMSO control
Protocol: The effect of the peptides on cell viability can be assessed in cultured cells using suitable assay of viability such as the PrestoBlue® assay (Thermo Fisher Scientific, Waltham, Mass.). Peptides were initially prepared as 10 mM stock in DMSO and tested at a final concentration of 10 μM (0.1% DMSO). […] PrestoBlue Assay Reagent was purchased from Thermo Fisher Scientific. A172 human brain glioblastoma cell line was purchased from American Type Culture Collection (Manassas, Va.). A172 cells were grown in DMEM supplemented with 10% FBS with 100 IU/ml penicillin and 100 μg/ml streptomycin. Cultures were maintained at 37° C. in a humidified atmosphere of 5% CO2/95% air. A172 cells were seeded at 8,000 cells per well on 96-well plates. […] Cell viability was determined using a PrestoBlue Assay reagent […] according to the manufacturer's instructions. Absorption for each sample well on the plate was measured using a Cytation 3 plate reader at 560 nm and 590 nm (BioTek, Winooski, Vt.). Activity was calculated relative to 0.1% DMSO untreated control. Treatment with 0.1% DMSO alone was used as the cell viability activity control. The relative standard deviation of the DMSO control was <5%.

[2] = system: 3T3-L1 Mouse Adipocytes; experiment: Free fatty acid levels in cultured mouse adipocytes; type: cell-based; details: peptide 10 μM, 1 nM isoproterenol, relative to isoproterenol treated cells
Protocol: The effect of the peptides on fatty acid metabolism can be assessed using an assay of free fatty acid levels in cultured cells such as mouse adipocytes. Peptides were initially prepared as 10 mM stock in DMSO and used at a final concentration of 10 μM (0.1% DMSO). […] Mouse 3T3-L1 cells purchased from ZenBio were seeded at 3,000 cells per well in 96-well plates in Pre-adipocyte Medium (Zen-Bio) and grown to confluence at 37° C. in a humidified atmosphere of 5% CO2/95% air. Two days after confluence, cells were placed in Adipocyte Differentiation Medium (Zen-Bio) and cultured for three additional days at 37° C. in a humidified atmosphere of 5% CO2/95% air. The culture media was then replaced with Adipocyte Maintenance Medium (Zen-Bio) and the cells maintained for an additional 9-12 days at 37° C. in a humidified atmosphere of 5% CO2/95% air with partial medium replacement every other day. Following 12-15 days of differentiation, test peptides were added at a final concentration of 10 μM in 0.1% DMSO and incubated for 20-22 hours in Adipocyte Maintenance Medium at 37° C. in a humidified atmosphere of 5% CO2/95% air. After 20-22 hours, 1 nM isoproterenol was added to all wells except untreated controls and test peptides were replenished. Insulin at 100 nM was added to control wells. Cells were incubated for 3 hours in Assay Buffer (Zen-Bio) at 37° C. in a humidified atmosphere of 5% CO2/95% air. Free fatty acid concentrations in the media were determined using a Free Fatty Acid Assay kit (Zen-Bio) according to the manufacturer's instructions using a Cytation 3 plate reader at 540 nm (BioTek, Winooski, Vt.). Absorbance values were corrected for untreated background and expressed relative to isoproterenol treated cells. Treatment with isoproterenol (1 nM) alone was used as the free fatty acid level stimulatory control. The relative standard deviation of the isoproterenol control was <10%. […] Free fatty acid levels for insulin (100 nM) treatment were <5% of the isoproterenol control value.
The effect of the peptides on fatty acid metabolism was assessed using an assay of free fatty acid levels in cultured cells such as mouse adipocytes. Peptides were initially prepared as 10 mM stock in DMSO and used at a final concentration of 10 μM (0.1% DMSO). […] Mouse 3T3-L1 cells purchased from ZenBio were seeded at 3,000 cells per well in 96-well plates in Pre-adipocyte Medium (Zen-Bio) and grown to confluence at 37° C. in a humidified atmosphere of 5% CO2/95% air. Two days after confluence, cells were placed in Adipocyte Differentiation Medium (Zen-Bio) and cultured for three additional days at 37° C. in a humidified atmosphere of 5% CO2/95% air. The culture media was then replaced with Adipocyte Maintenance Medium (Zen-Bio) and the cells maintained for an additional 9-12 days at 37° C. in a humidified atmosphere of 5% CO2/95% air with partial medium replacement every other day. Following 12-15 days of differentiation, test peptides were added at a final concentration of 10 μM in 0.1% DMSO and incubated for 20-22 hours in Adipocyte Maintenance Medium at 37° C. in a humidified atmosphere of 5% CO2/95% air. After 20-22 hours, 1 nM isoproterenol was added to all wells except untreated controls and test peptides were replenished. Insulin at 100 nM was added to control wells. Cells were incubated for 3 hours in Assay Buffer (Zen-Bio) at 37° C. in a humidified atmosphere of 5% CO2/95% air. Free fatty acid concentrations in the media were determined using a Free Fatty Acid Assay kit (Zen-Bio) according to the manufacturer's instructions using a Cytation 3 plate reader at 540 nm (BioTek, Winooski, Vt.). Absorbance values were corrected for untreated background and expressed relative to isoproterenol treated cells. Treatment with isoproterenol (1 nM) alone was used as the free fatty acid level stimulatory control. The relative standard deviation of the isoproterenol control was <10%. […]

[3] = system: SH-SY5Y Neuroblastoma Cells Exposed to Staurosporine; experiment: ATP levels in cells exposed to staurosporine; type: cell-based, human; details: peptide 10 μM with staurosporine, 18-20 hours; <100% cytoprotective, >100% synergistic
Protocol: Peptides were initially prepared as 10 mM stock in DMSO and tested at a final concentration of 10 μM (0.1% DMSO). […] […] CellTiter-Glo® Assay kit was purchased from Promega. SH-SY5Y human neuroblastoma cell line was purchased from American Type Culture Collection (Manassas, Va.) and licensed from Memorial Sloan-Kettering Cancer Center (New York, N.Y.). SH-SY5Y cells were grown in DMEM/F12 medium supplemented with 10% FBS with 100 IU/ml penicillin and 100 μg/ml streptomycin. Cultures were maintained at 37° C. in a humidified atmosphere of 5% CO2/95% air. SH-SY5Y cells were seeded at 30,000 cells per well on 96-well plates. […] ATP levels were determined using a CellTiter-Glo Assay kit (Promega) according to the manufacturer's instructions. Luminescence for each sample well on the plate was measured using a Cytation 3 plate reader (BioTek, Winooski, Vt.). […] A value less than 100% is indicative of a cytoprotective effect, while a value greater than 100% is indicative of a synergistic effect on viability.

Substance | PrestoBlue Assay, Percent of Control Activity [1] | Free Fatty Acid Levels, MEAN % ISO ([2]; Table 6) | Free Fatty Acid Levels, MEAN % ISO ([2]; Table 12) | Percent of ATP Reduction Induced by Control [3]
MRVIRMCLGVGLLGDLAG [SEQ ID NO: 2] | 100.0% | 26.4% | 26% | 104.8%
R(dA)IR(Nle)SLNVGLLGEL(dA) (R[dA]IR[Nle]SLNVGLLGEL[dA]) [SEQ ID NO: 15] | – | – | 101% | –
RVIR(Nle)CLNVGLLGEL(dA)G (RVIR[Nle]CLNVGLLGEL[dA]G) [SEQ ID NO: 6] | – | – | 78% | –
RVIR(Nle)SLNVGLEGEL(dA) (RVIR[Nle]SLNVGLEGEL[dA]) [SEQ ID NO: 14] | – | – | 64% | –
RVIR(Nle)SLNVGLLGEL(dA)G (RVIR[Nle]SLNVGLLGEL[dA]G) [SEQ ID NO: 8] | – | – | 64% | –
RVIRMCLGVGLLGDL(dA)G (RVIRMCLGVGLLGDL[dA]G) [SEQ ID NO: 4] | 97.7% | 20.1% | 20% | 104.1%
RVIRMCLGVGLLGDLAG (disulfide I:6-II:6) [SEQ ID NO: 26] | – | – | 39% | –
RVIRMCLGVGLLGDLAG [SEQ ID NO: 3] | 98.9% | 19.7% | 20% | 108.4%
RVIRMCLGVGLLGDLAGK{PEG12} (RVIRMCLGVGLLGDLAGK(PEG12′)) [SEQ ID NO: 17] | – | – | 31% | –
RVIRMCLNNGLLGEL(dA)G (RVIRMCLNNGLLGEL[dA]G) [SEQ ID NO: 9] | – | – | 30% | –
RVIRMCLNNGLNGEL(dA)E (RVIRMCLNNGLNGEL[dA]E) [SEQ ID NO: 23] | – | – | 61% | –
RVIRMCLNVGLLGEL(dA)E (RVIRMCLNVGLLGEL[dA]E) [SEQ ID NO: 12] | – | – | 22% | –
RVIRMCLNVGLLGEL(dA)G [SEQ ID NO: 5] (RVIRMCLNVGLLGEL[dA]G) | 96.9% | 18.3% | 18% | 108.0%
RVIRMCLNVGLNGEL(dA)G (RVIRMCLNVGLNGEL[dA]G) [SEQ ID NO: 11] | – | – | 36% | –
RVIRMCLNVGNLGEL(dA)G (RVIRMCLNVGNLGEL[dA]G) [SEQ ID NO: 10] | – | – | 29% | –
RVIRMSLNVGLEGEL(dA) (RVIRMSLNVGLEGEL[dA]) [SEQ ID NO: 13] | – | – | 71% | –
RVIRMSLNVGLLGEL(dA)G (RVIRMSLNVGLLGEL[dA]G) [SEQ ID NO: 7] | – | – | 77% | –
